In PubChem BioAssay (NCI):
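The concentration for 50% growth inhibition is given as GI50. TGI marks complete inhibition of growth.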

Experiments:
Assay in all cases: DTP human tumour cell line panel, 384-well format
786-0 renal = test system: 786-0 renal
A498 renal = test system: A498 renal
A549 NSCLC = test system: A549 NSCLC
ACHN renal = test system: ACHN renal
BT-549 breast = test system: BT-549 breast
CAKI-1 renal = test system: CAKI-1 renal
CCRF-CEM leukemia = test system: CCRF-CEM leukemia
COLO 205 colon = test system: COLO 205 colon
DU-145 prostate = test system: DU-145 prostate
EKVX NSCLC = test system: EKVX NSCLC
HCC-2998 colon = test system: HCC-2998 colon
HCT-116 colon = test system: HCT-116 colon
HCT-15 colon = test system: HCT-15 colon
HL-60(TB) leukemia = test system: HL-60(TB) leukemia
HOP-62 NSCLC = test system: HOP-62 NSCLC
HOP-92 NSCLC = test system: HOP-92 NSCLC
HS 578T breast = test system: HS 578T breast
HT29 colon = test system: HT29 colon
IGROV1 ovarian = test system: IGROV1 ovarian
K-562 leukemia = test system: K-562 leukemia
KM12 colon = test system: KM12 colon
LOX IMVI melanoma = test system: LOX IMVI melanoma
M14 melanoma = test system: M14 melanoma
MALME-3M melanoma = test system: MALME-3M melanoma
MCF7 breast = test system: MCF7 breast
MDA-MB-231 breast = test system: MDA-MB-231 breast
MDA-MB-435 melanoma = test system: MDA-MB-435 melanoma
MDA-MB-468 breast = test system: MDA-MB-468 breast
MOLT-4 leukemia = test system: MOLT-4 leukemia
NCI-H226 lung = test system: NCI-H226 lung

**Q.** What does the source list for `Oc1ccc(-c2nc(-c3ccc(F)cc3)c(-c3ccncc3)[nH]2)cc1`?
**A.** GI50 ([…]-0 renal): 12.9 µM; TGI (786-0 renal): 26.6 µM; GI50 (A498 renal): 16.4 µM; TGI (A498 renal): 46.2 µM; GI50 (A549 NSCLC): 19.2 µM; TGI (A549 NSCLC): > 52.1 µM; GI50 (ACHN renal): 12.2 µM; TGI (ACHN renal): 31.5 µM; GI50 (BT-549 breast): 19.2 µM; TGI (BT-549 breast): > 57.2 µM; GI50 (CAKI-1 renal): 7.98 µM; TGI (CAKI-1 renal): > 48.4 µM; GI50 (CCRF-CEM leukemia): 10.1 µM; TGI (CCRF-CEM leukemia): 21.8 µM; GI50 (COLO 205 colon): 8.47 µM; TGI (COLO 205 colon): 22.1 µM; GI50 (DU-145 prostate): 14.8 µM; TGI (DU-145 prostate): 31.2 µM; GI50 (EKVX NSCLC): 14.7 µM; TGI (EKVX NSCLC): 33.2 µM; GI50 (HCC-2998 colon): 23.9 µM; TGI (HCC-2998 colon): 40.8 µM; GI50 (HCT-116 colon): 20 µM; TGI (HCT-116 colon): > 53.3 µM; GI50 (HCT-15 colon): 15.4 µM; TGI (HCT-15 colon): 32.9 µM; GI50 (HL-60(TB) leukemia): 14.6 µM; TGI (HL-60(TB) leukemia): 27.7 µM; GI50 (HOP-62 NSCLC): 19 µM; TGI (HOP-62 NSCLC): 42.9 µM; GI50 (HOP-92 NSCLC): 15.9 µM; TGI (HOP-92 NSCLC): 60.4 µM; GI50 (HS 578T breast): 15.7 µM; TGI (HS 578T breast): 31.3 µM; GI50 (HT29 colon): 5.85 µM; TGI (HT29 colon): 20.9 µM; GI50 (IGROV1 ovarian): 1.62 µM; TGI (IGROV1 ovarian): 20.9 µM; GI50 (K-562 leukemia): 10.5 µM; TGI (K-562 leukemia): 24.2 µM; GI50 (KM12 colon): 20.2 µM; TGI (KM12 colon): 37.2 µM; GI50 (LOX IMVI melanoma): 17.6 µM; TGI (LOX IMVI melanoma): 31.8 µM; GI50 (M14 melanoma): 5.7 µM; TGI (M14 melanoma): 21 µM; GI50 (MALME-3M melanoma): 3.34 µM; TGI (MALME-3M melanoma): 9.1 µM; GI50 (MCF7 breast): 18.8 µM; TGI (MCF7 breast): > 100 µM; GI50 (MDA-MB-231 breast): 20.7 µM; TGI (MDA-MB-231 breast): > 60 µM; GI50 (MDA-MB-435 melanoma): 10.4 µM; TGI (MDA-MB-435 melanoma): 44 µM; GI50 (MDA-MB-468 breast): 4.59 µM; TGI (MDA-MB-468 breast): 19.3 µM; GI50 (MOLT-4 leukemia): 11.9 µM; TGI (MOLT-4 leukemia): 24.3 µM; GI50 (NCI-H226 lung): 18.7 µM
